# Measured values from patent publication US20240148821A1, “PHARMACEUTICAL USE OF CYCLIC PEPTIDE COMPOUND” (CHUGAI SEIYAKU KABUSHIKI KAISHA, priority 2021, published 2024).
# pIC50: −log10 of the molar value. Numbered stars: 1 amine (or outer) side, 2 acyl side, 3 side chain; on linkers, the order of the positions; unused ones are H or OH. Bridge positions count the residues as written; N and C are the ends. Square brackets hold non-standard residues; d marks the D form. Peptide text beside a SMILES is read from it. * marks the point of attachment. hPhe(3-Cl-4-CF3) = N[C@@H](CCc1ccc(C(F)(F)F)c(Cl)c1)C(=O)O; Pro(cis-4-Ph) = O=C(O)[C@@H]1C[C@H](c2ccccc2)CN1; NMeAla(4-thiazolyl) = CN[C@@H](Cc1cscn1)C(=O)O; X120 = O=C([C@H](Cc1cc(F)cc(Br)c1)N[*:1])[*:2]; NMePhe(3-CN) = CN[C@@H](Cc1cccc(C#N)c1)C(=O)O; NMeGly(cPent) = CN[C@H](C(=O)O)C1CCCC1; NMeY = CN[C@@H](Cc1ccc(O)cc1)C(=O)O; NMeCha = CN[C@@H](CC1CCCCC1)C(=O)O; NMeChg = CN[C@H](C(=O)O)C1CCCCC1; NMeD = CN[C@@H](CC(=O)O)C(=O)O; NMeL = CN[C@@H](CC(C)C)C(=O)O; NEtAla = CCN[C@@H](C)C(=O)O; NMeV = CN[C@H](C(=O)O)C(C)C; d(β3hA) = C[C@@H](N)CC(=O)O; NMeAbu = CC[C@H](NC)C(=O)O; NMeA = CN[C@@H](C)C(=O)O; NMeAib = CNC(C)(C)C(=O)O; Nle = CCCC[C@H](N)C(=O)O; Piperidide = C1CCN(*)CC1; dNMeA = CN[C@H](C)C(=O)O; Ac5c = NC1(C(=O)O)CCCC1; Aze = O=C(O)[C@@H]1CCN1; Ac3c = NC1(C(=O)O)CC1; Sar = CNCC(=O)O
# Test system: Human pancreatic cancer cell line AsPC-1 (G12D mutation Kras)
# Assay: AsPC-1 cell growth inhibition (AsPC-1 CGI)
# Type: cell-based
# Details: read-out: AsPC-1 cell growth inhibition, 50% growth inhibitory concentration (IC50 value); 96 hours, CellTiter-Glo, values classified in ranges
# Method: Test compounds were serially dilated with dimethyl sulfoxide, and 200 nL was then dispensed to a U-bottom 96-well plate using Labcyte Echo. […] The cell suspension was dispensed to a. plate containing a test compound at 100 μL per well and incubated at 37° C. in a 5% carbon dioxide gas incubator. 96 hours later, 80 μL of CellTiter-Glo (Promega) was added to each well and fluorescence was measured.
row,SMILES,pIC50
1,CCCC[C@@H]1NC(=O)[C@H](Cc2cc(F)cc(Br)c2)NC(=O)CN(C)C(=O)[C@H](Cc2ccc(OC)cc2)N(C)C(=O)[C@@H]2CCN2C(=O)[C@H](C)N(C)C(=O)[C@H]([C@@H](C)CC)NC(=O)[C@H](CC)N(C)C(=O)C[C@@H](C(=O)N2CCCCC2)N(C)C(=O)[C@H](CC(C)C)NC(=O)C(C)(C)N(C)C1=O [Compound 1372] ([NMeAbu]I[NMeA][Aze][NMeY](Me)[Sar][X120][Nle][NMeAib]L[NMeD]-Piperidide; lactam N-11),< 6.30
2,CC[C@H](C)[C@@H]1NC(=O)[C@H](CC(C)C)N(C)C(=O)C[C@@H](C(=O)N2CCCCC2)N(C)C(=O)[C@H](C2CCCCC2)N(C)C(=O)C2(CCCC2)NC(=O)[C@@H]2C[C@H](c3ccccc3)CN2C(=O)[C@H](CCc2ccc(C(F)(F)F)c(Cl)c2)NC(=O)CN(C)C(=O)[C@H](CC2CCCCC2)N(C)C(=O)[C@@H]2CCCN2C(=O)CN(C)C1=O [Compound 1096] ([NMeL]I[Sar]P[NMeCha][Sar][hPhe(3-Cl-4-CF3)][Pro(cis-4-Ph)][Ac5c][NMeChg][NMeD]-Piperidide; lactam N-11),< 6.30
3,CC[C@H](C)[C@@H]1NC(=O)[C@H](C)N(C)C(=O)C[C@@H](C)NC(=O)[C@H](C2CCCC2)N(C)C(=O)C2(CCCC2)NC(=O)[C@@H]2CCCN2C(=O)[C@H](CCc2ccc(C(F)(F)F)c(Cl)c2)NC(=O)[C@@H](C)N(C)C(=O)[C@H](C(C)C)N(C)C(=O)CN(C)C(=O)CN(C)C1=O [Compound 109] (cyclo([Ac5c][NMeGly(cPent)][d(β3hA)][NMeA]I[Sar][Sar][NMeV][dNMeA][hPhe(3-Cl-4-CF3)]P)),< 6.30
4,CC[C@H](C)[C@@H]1NC(=O)[C@H](C)N(CC)C(=O)C[C@@H](C)NC(=O)[C@H](C(C)C)N(C)C(=O)C2(CCCC2)NC(=O)[C@@H]2CCCN2C(=O)[C@H](CCc2ccc(C(F)(F)F)c(Cl)c2)NC(=O)CN(C)C(=O)[C@H](CC2CCCCC2)N(C)C(=O)CN(C)C(=O)CN(C)C1=O [Compound 196] (cyclo([Ac5c][NMeV][d(β3hA)][NEtAla]I[Sar][Sar][NMeCha][Sar][hPhe(3-Cl-4-CF3)]P)),< 6.30
5,CC[C@H](C)[C@@H]1NC(=O)[C@H](CC(C)C)N(C)C(=O)C[C@@H](C(=O)N2CCCCC2)N(C)C(=O)[C@H](C(C)C)N(C)C(=O)C2(CCCC2)NC(=O)[C@H](C)N(C)C(=O)[C@H](CCc2ccc(C(F)(F)F)c(Cl)c2)NC(=O)CN(C)C(=O)[C@H](CC2CCCCC2)N(C)C(=O)[C@@H]2CCN2C(=O)[C@H](C)N(C)C1=O [Compound 1243] ([NMeL]I[NMeA][Aze][NMeCha][Sar][hPhe(3-Cl-4-CF3)][NMeA][Ac5c][NMeV][NMeD]-Piperidide; lactam N-11),< 6.30
6,CC[C@H](C)[C@@H]1NC(=O)[C@H](CC(C)C)N(C)C(=O)C[C@@H](C)NC(=O)[C@H](C(C)C)N(C)C(=O)C2(CCCC2)NC(=O)[C@@H]2CCCN2C(=O)[C@H](CCc2ccc(C(F)(F)F)c(Cl)c2)NC(=O)CN(C)C(=O)[C@H](Cc2cccc(C#N)c2)N(C)C(=O)CN(C)C(=O)CN(C)C1=O [Compound 975] (cyclo([Ac5c][NMeV][d(β3hA)][NMeL]I[Sar][Sar][NMePhe(3-CN)][Sar][hPhe(3-Cl-4-CF3)]P)),< 6.30
7,CC[C@H](C)[C@@H]1NC(=O)[C@H](CC(C)C)N(C)C(=O)C[C@@H](C)NC(=O)[C@H](C(C)C)N(C)C(=O)C2(CC2)NC(=O)[C@@H]2CCCN2C(=O)[C@H](CCc2ccc(C(F)(F)F)c(Cl)c2)NC(=O)CN(C)C(=O)[C@H](CC2CCCCC2)N(C)C(=O)CN(C)C(=O)CN(C)C1=O [Compound 1111] (cyclo([Ac3c][NMeV][d(β3hA)][NMeL]I[Sar][Sar][NMeCha][Sar][hPhe(3-Cl-4-CF3)]P)),< 6.30
8,CC[C@H](C)[C@@H]1NC(=O)[C@H](CC(C)C)N(C)C(=O)C[C@@H](C(=O)N2CCCCC2)NC(=O)[C@H](C(C)C)N(C)C(=O)C2(CCCC2)NC(=O)[C@@H]2CCCN2C(=O)[C@H](CCc2ccc(C(F)(F)F)c(Cl)c2)NC(=O)CN(C)C(=O)[C@H](CC2CCCCC2)N(C)C(=O)CN(C)C(=O)CN(C)C1=O [Compound 417] ([NMeL]I[Sar][Sar][NMeCha][Sar][hPhe(3-Cl-4-CF3)]P[Ac5c][NMeV]D-Piperidide; lactam N-11),< 6.30
9,CC[C@H](C)[C@@H]1NC(=O)[C@H](CC(C)C)N(C)C(=O)C[C@@H](C(=O)N(C)C)N(C)C(=O)[C@H](C2CCCC2)N(C)C(=O)[C@H](C)NC(=O)[C@H](Cc2cscn2)N(C)C(=O)[C@H](CCc2ccc(C(F)(F)F)c(Cl)c2)NC(=O)CN(C)C(=O)[C@H](CC2CCCCC2)N(C)C(=O)[C@@H]2CCN2C(=O)[C@H](C)N(C)C1=O [Compound 805] ([NMeL]I[NMeA][Aze][NMeCha][Sar][hPhe(3-Cl-4-CF3)][NMeAla(4-thiazolyl)]A[NMeGly(cPent)][NMeD]-NMe2; lactam N-11),< 6.30
